{
  "source": "patent US11155576B2",
  "about": "“Synthetic peptides, enzymatic formation of pericellular hydrogels/nanofibrils, and methods of use” (BRANDEIS UNIVERSITY, priority 2014, dated 2021)",
  "key": {"[1]": {"test": "Cell viability assay (MTT), Ect1/E6E7", "format": "cell-based", "details": "human, Ect1/E6E7 cells, read-out: Cells remaining viable", "description": "(§1) Cells in exponential growth phase were seeded in a 96 well plate at a concentration of 2×10^4 cells/well. The cells were allowed to attach to the wells for 24 hours at 37° C., 5% CO2. The culture medium was removed and 100 μL culture medium containing compounds (immediately diluted from fresh prepared stock solution of 10 mM) at gradient concentrations (0 μM as the control) was placed into each well. After culturing at 37° C., 5% CO2 for 48 hours, each well was added by 10 μL of 5 mg/mL MTT (3-(4,5-dimethylthiazoL-2-yl)-2,5-diphenyltetrazolium bromide), and the plated cells were incubated in the dark for 4 hours. 100 μL 10% SDS with 0.01M HCl was added to each well to stop the reduction reaction and to dissolve the purple. After overnight incubation of the cells at 37° C., the OD at 595 nm of the solution was measured in a microplate reader. Data represent the mean±standard deviation of three independent experiments."}, "[2]": {"tested_on": "HeLa cells", "test": "Western blot of tubulin in pericellular nanonets versus CM", "format": "cell-based, human", "details": "nanonets after 3 or 6 hours of incubation versus CM collected at 24 hours", "description": "To select the optimal incubation time for the collection of nanonets/hydrogel, HeLa cells were incubated with D-2a (for 3, 6, or 9 hours, respectively) to allow nanonet formation. The amount of tubulin (an indicator of autolysis) present in the nanonets/hydrogels at various time points was evaluated by Western blot and compared to the amount of tubulin present in conditioned media (“CM”) collected following 24 hours of incubation (FIG. 33A). […] The results also indicate the cell compatibility of the incubation and collection process for nanonets/hydrogel."}, "[3]": {"tested_on": "HeLa cells", "test": "Cell adhesion assay", "format": "cell-based, human", "details": "560 μM, trypsinized HeLa cells, at 4 hours", "description": "Cells in exponential growth phase were detached using 0.25% trypsin-EDTA. After neutralizing trypsin by addition of complete culture medium, the cells were collected by centrifuge (1000 rpm, 3 min). The cell pellet was suspended by addition of culture medium to a concentration of 4×10^5 cells/mL. 1 mL of the cell suspension was mixed with 1 mL of 2×D-2a or D-2b containing culture media. The resulting solutions were added into 96 well plate at 100 μL/well. After the desired time of incubation at 37° C., 5% CO2, the solution was gently removed, and then 100 μL of culture medium and 10 μL of 5 mg/mL MTT were added to each well. Following 4 hour incubation in the dark, 100 μL of 10% SDS with 0.01M HCl was added to each well to stop the reduction reaction and to dissolve the purple. After incubation of the cells at 37° C. for overnight, the viability was measured. Data represent the mean±standard deviation of three independent experiments."}, "[4]": {"test": "Cell viability assay (MTT), HeLa", "format": "cell-based, human", "details": "human, HeLa cells, 48 hour incubation", "description": "as §1"}, "[5]": {"tested_on": "MES-SA cells", "test": "Cell viability assay (MTT), MES-SA", "format": "cell-based", "details": "280 μM", "description": "as §1"}, "[6]": {"tested_on": "MES-SA/dx5 cells", "test": "Pericellular hydrogel/nanonets on MES-SA/dx5 cells (Congo red/DAPI)", "format": "cell-based, human", "details": "280 μM, 12 hours", "description": "FIG. 11 illustrates overlaid and 3D stacked z-scan images of Congo red and DAPI stained MES-SA and MES-SA/Dx5 cells treated with either 280 μM D-2a (upper panel) or medium alone (control, lower panel) for 12 hours. Scale bar=[…]. White dots outline the cells.\nCells in exponential growth phase were seeded in a glass bottomed culture chamber at 2×10^4 cells/well. Cells were allowed to attach for 24 hours at 37° C., 5% CO2. The culture medium was removed, and replaced with culture medium containing D-2a at 280 μM. Following 12 hours of incubation, cells were washed 3 times with PBS prior to being stained with 0.1 mg/mL Congo red and 0.6 μM DAPI in PBS buffer (30 minutes at 37° C. in the dark). Next, cells were rinsed three times with PBS, and then kept in PBS for imaging."}, "[7]": {"tested_on": "MES-SA/dx5 cells", "test": "Cell viability assay (MTT), MES-SA/dx5", "format": "cell-based, human", "details": "280 μM; multi-drug resistant cells", "description": "as §1"}, "[8]": {"tested_on": "HeLa cells", "test": "Viability of cells after cold shock and nanonet collection", "format": "cell-based, human", "details": "4 hour incubation with D-2a in FBS-free MEM, cold shock and medium removal", "description": "FIGS. 33A-33B show the cell compatibility of the use of nanonets/hydrogel for collecting cancer secretome. FIG. 33A is a Western blot showing the amount of tubulins in CM collected after 24 hours of incubation or pericellular nanonets collected after 3 to 9 hours of incubation. […] Both CM and nanonets were collected in FBS-free MEM. […] Two trials, each has three repeats.\nIn another experiment the viability of cells following nanonet collection was evaluated following 4 hour incubation with D-2a and cold shock."}, "[9]": {"tested_on": "Ect1/E6E7 cells", "test": "Pericellular hydrogelation on Ect1/E6E7 cells", "format": "cell-based, human", "details": "560 μM, prolonged incubation time of 48 hours", "description": "(§2) An 11.2 mM (8.09 mg/mL) stock solution of D-2a was prepared in ddH2O. The pH was adjusted to 7.4 using 1N NaOH. 2×10^5 cells in exponential growth phase were seeded in 35 mm Petri dish with 1 mL complete culture medium. Following overnight incubation, the medium was replaced with 1 mL of medium containing D-2a (diluted from the stock solution immediately prior to use). Petri dishes were incubated at 37° C. for two hours. Next, dishes were removed from the incubator and titled on a bench to visualize the pericellular hydrogel. Prior to co-incubation with phosphatase inhibitors, cells were washed three times with medium containing Pierce phosphatase inhibitor cocktail (Thermo) (contains sodium floride, sodium orthovanadate, sodium pyrophosphate, and beta-glycerophosphate). Next, 1 mL of medium containing both the inhibitor cocktail and D-2a was applied to the cells.\nEct1/E6E7 cells (immortalized normal human cervical epithelial cells, which have same tissue and organ origins as HeLa cells) were treated with the same procedure as described for HeLa cells above. […] The difference of hydrogel/nanonets formation by D-2a conversion to D-2b on HeLa cells and Ect1/E6E7 cells agrees with the notion that HeLa cells have higher levels of phosphatase activity than Ect1/E6E7 cells (FIG. 9)."}, "[10]": {"tested_on": "HeLa cells", "test": "Pericellular hydrogelation on HeLa cells (optical images)", "format": "cell-based, human", "description": "as §2"}},
  "data": [
    {"smiles": "O=C(Cc1ccc2ccccc2c1)N[C@H](Cc1ccccc1)C(=O)N[C@H](Cc1ccccc1)C(=O)N[C@H](Cc1ccc(OP(=O)(O)O)cc1)C(=O)O", "note": "[D-2a, Nap-D-Phe-D-Phe-D-Tyr(PO3H2)]", "values": [
      {"measurement": "viability at 48 h, 280 µM", "setting": "[1]", "result": "> 60", "unit": "%"},
      {"measurement": "Amount of tubulin (indicator of autolysis) in nanonets", "setting": "[2]", "result": "contain less tubulin than CM"},
      {"measurement": "Cells reattached to surface", "setting": "[3]", "result": "less than 5%"},
      {"measurement": "viability at 48 h, 280 µM", "setting": "[4]", "result": "~10", "unit": "%"},
      {"measurement": "Growth inhibition", "setting": "[5]", "result": "inhibits the growth"},
      {"measurement": "Pericellular hydrogel/nanonets formation", "setting": "[6]", "result": "forms pericellular hydrogel/nanonets"},
      {"measurement": "Growth inhibition", "setting": "[7]", "result": "inhibits the growth"},
      {"measurement": "Cell viability after nanonet collection", "setting": "[8]", "result": "hardly affected cell viability"},
      {"measurement": "Hydrogel formation on Ect1/E6E7 cells", "setting": "[9]", "result": "hydrogels hardly form"},
      {"measurement": "Pericellular hydrogel formation on HeLa cells", "setting": "[10]; 140 μM, 2 hours at 37° C.", "result": "Little hydrogelation"},
      {"measurement": "Pericellular hydrogel formation on HeLa cells", "setting": "[10]; 280 μM, 2 hours at 37° C.", "result": "formation of a hydrogel-like soft material (hydrogel) on the cell surface"},
      {"measurement": "Pericellular hydrogel formation on HeLa cells", "setting": "[10]; 560 μM D-2a in the presence of ALP (0.1 U/mL), 2 hours", "result": "hardly any pericellular hydrogelation"},
      {"measurement": "Pericellular hydrogel formation on HeLa cells", "setting": "[10]; 560 μM D-2a with phosphatase inhibitors (Pierce), 2 hours", "result": "prevent formation of the pericellular hydrogel"},
      {"measurement": "Pericellular hydrogel formation on HeLa cells", "setting": "[10]; 560 μM, 2 hours at 37° C.", "result": "formation of a hydrogel-like soft material (hydrogel) on the cell surface"}
    ]}
  ]
}
